Legend:
Assay type in all cases: in vivo
Digitaria sanguinalis [1] = assay: Herbicidal activity test for indoor pre-emergence soil treatment; parameters: key: 1-9 levels; higher = more weed remaining vs blank control; conditions: 150 g a.i./ha, visual inspection 21 days after treatment
Method: (§1) The herbicidal activity test for indoor pre-emergence soil treatment was performed with some of the N-benzylbenzamide-based compounds of general formula I or II with reference to the method of NY/T 1155.3-2006. Neutral sandy loam soil having an organic content of ≤2% was added to fill ⅘ of the pot, and the soil was completely moistened by infiltrating irrigation from the bottom of the pot. The seeds of the test weed were evenly spread on the soil surface, and then covered by 0.5 cm to 2.0 cm of soil depending on the seed size. Representative compounds in the examples were used to prepare emulsifiable concentrates (10%), and spray treatments to the soil were performed 24 hours after the sowing with the test agents diluted with water, at a spraying dosage of 150 g(a.i.)/ha. Then, the results were investigated by visual inspection 21 days after the treatments. The herbicidal activity of the agent was evaluated on a scale of 1-9 levels according to the symptoms and severity of damage to the test weeds.
(§2) Level 2: equivalent to 0 to 2.5% of the weed in the blank control area;
(§3) Level 3: equivalent to 2.6 to 5% of the weed in the blank control area;
(§4) Level 4: equivalent to 5.1 to 10% of the weed in the blank control area;
(§5) Level 5: equivalent to 10.1 to 15% of the weed in the blank control area;
(§6) Level 6: equivalent to 15.1 to 25% of the weed in the blank control area;
(§7) Level 7: equivalent to 25.1 to 35% of the weed in the blank control area;
(§8) Level 8: equivalent to 35.1 to 67.5% of the weed in the blank control area; and
(§9) Level 9: equivalent to 67.6 to 100% of the weed in the blank control area.

Amaranthus retroflexus [2] = assay: as above; parameters: key: 1-9 levels; higher = more weed remaining vs blank control; conditions: 150 g a.i./ha, visual inspection 21 days after treatment
Method: as §1, §2, §3, §4, §5, §6, §7, §8, §9

green bristlegrass [3] = assay: as above; parameters: key: level 1-9; higher = more weed remaining vs blank control; conditions: 150 g a.i./ha, visual inspection 21 days after treatment
Method: as §1, §2, §3, §4, §5, §6, §7, §8, §9

Piemarker [4] = assay: as above; parameters: key: level 1-9; higher = more weed remaining vs blank control; conditions: 150 g a.i./ha, visual inspection 21 days after treatment
Method: as §1, §2, §3, §4, §5, §6, §7, §8, §9

Barnyard grass [5] = assay: as above; parameters: key: level 1-9; higher = more weed remaining vs blank control; conditions: 150 g a.i./ha, visual inspection 21 days after treatment
Method: as §1, §2, §3, §4, §5, §6, §7, §8, §9

green bristlegrass [6] = assay: Field test for weed control in a corn field; conditions: for Post-emergence weed control effect, Green bristlegrass: 150 g a.i./ha, after treatment
Method: (§10) The weed control efficacy field test was performed in a corn field with some of the N-benzylbenzamide-based compounds of general formula I or II with reference to the method of GB/T 17980.42-2000. […] Spray treatments were performed in the stage where 2 leaves to 5 leaves were grown for the corns after the sowing. Representative compounds in the examples were used to prepare emulsifiable concentrates (10%), and spray treatments were performed with the concentrates in water at a dosage of 150 g(a.i.)/ha, and repeated 4 times for each treatment, and the area was 20 m^2. Oil dispersion with 25% of mesotrione was used as a control agent and applied at a dosage of 150 g(a.i.)/h. […] The herbicidal activities of the agents were evaluated on a scale of 1-9 levels according to the symptoms and severity of damage to the test weeds.
as §2, §3, §4, §5, §6, §7, §8, §9

Acalypha australis = assay: Field test for weed control in a corn field; conditions: for Post-emergence weed control effect, Acalypha australis: 150 g a.i./ha, after treatment
Method: as §10, §2, §3, §4, §5, §6, §7, §8, §9

Solanum nigrum = assay: Field test for weed control in a corn field; conditions: for Post-emergence weed control effect, Solanum nigrum: 150 g a.i./ha, 30 days after treatment
Method: as §10, §2, §3, §4, §5, §6, §7, §8, §9

goosegrass = assay: Field test for weed control in a corn field; conditions: for Post-emergence weed control effect, Goose grass: 150 g a.i./ha, after treatment
Method: as §10, §2, §3, §4, §5, §6, §7, §8, §9

Convolvulus arvensis = assay: Field test for weed control in a corn field; conditions: for Post-emergence weed control effect, Convolvulus arvensis: 150 g a.i./ha, after treatment
Method: as §10, §2, §3, §4, §5, §6, §7, §8, §9

nutgrass flatsedge = assay: Field test for weed control in a corn field; conditions: for Post-emergence weed control effect, Nutgrass flatsedge: 150 g a.i./ha, after treatment
Method: as §10, §2, §3, §4, §5, §6, §7, §8, §9

Digitaria sanguinalis [7] = assay: Field test for weed control in a corn field; conditions: for Post-emergence weed control effect, Digitaria sanguinalis: 150 g a.i./ha, after treatment
Method: as §10, §2, §3, §4, §5, §6, §7, §8, §9

Amaranthus retroflexus [8] = assay: Field test for weed control in a corn field; conditions: for Post-emergence weed control effect, Amaranthus retroflexus: 150 g a.i./ha, 30 days after treatment
Method: as §10, §2, §3, §4, §5, §6, §7, §8, §9

Barnyard grass [9] = assay: Field test for weed control in a corn field; conditions: for Post-emergence weed control effect, Barnyard grass: 150 g a.i./ha, 30 days after treatment
Method: as §10, §2, §3, §4, §5, §6, §7, §8, §9

Chenopodium album = assay: Field test for weed control in a corn field; conditions: for Post-emergence weed control effect, Chenopodium album: 150 g a.i./ha, after treatment
Method: as §10, §2, §3, §4, §5, §6, §7, §8, §9

Portulaca oleracea = assay: Field test for weed control in a corn field; conditions: for Post-emergence weed control effect, Portulaca oleracea: 150 g a.i./ha, after treatment
Method: as §10, §2, §3, §4, §5, §6, §7, §8, §9

Humulus scandens [10] = assay: Herbicidal activity test for indoor pre-emergence soil treatment; conditions: 150 g a.i./ha, visual inspection 21 days after treatment
Method: as §1, §2, §3, §4, §5, §6, §7, §8, §9

Humulus scandens [11] = assay: Herbicidal activity test for indoor post-emergence spraying on stems and leaves; parameters: key: grade level by weed remaining vs blank control, e.g. 5 = 10.1-15%; conditions: 150 g a.i./ha, visual inspection 21 days after treatment
Method: (§11) The post-emergence herbicidal activity test was performed with some of the N-benzylbenzamide-based compounds of general formula I or II with reference to the method of NY/T 1155.4-2006. […] After the sowing, the weed was moved to a greenhouse for regular cultivation. […] Then, the results were investigated by visual inspection 21 days after the treatments. […] Level 5: equivalent to 10.1 to 15% of the weed in the blank control area; Level 6: equivalent to 15.1 to 25% of the weed in the blank control area; Level 7: equivalent to 25.1 to 35% of the weed in the blank control area; Level 8: equivalent to 35.1 to 67.5% of the weed in the blank control area; and […]

green bristlegrass [12] = assay: as above; parameters: key: grade level by weed remaining vs blank control, e.g. 5 = 10.1-15%; conditions: 150 g a.i./ha, visual inspection 21 days after treatment
Method: as §11

Piemarker [13] = assay: as above; parameters: key: grade level by weed remaining vs blank control, e.g. 5 = 10.1-15%; conditions: 150 g a.i./ha, visual inspection 21 days after treatment
Method: as §11

Digitaria sanguinalis [14] = assay: as above; parameters: key: grade level by weed remaining vs blank control, e.g. 5 = 10.1-15%; conditions: 150 g a.i./ha, visual inspection 21 days after treatment
Method: as §11

Amaranthus retroflexus [15] = assay: as above; parameters: key: grade level by weed remaining vs blank control, e.g. 5 = 10.1-15%; conditions: 150 g a.i./ha, visual inspection 21 days after treatment
Method: as §11

Barnyard grass [16] = assay: as above; parameters: key: grade level by weed remaining vs blank control, e.g. 5 = 10.1-15%; conditions: 150 g a.i./ha, visual inspection 21 days after treatment
Method: as §11

Gramineae = assay: Post-emergence herbicidal activity test in a paddy field; parameters: key: level scale; higher level = more weed left vs blank control; conditions: 150 g a.i./ha (penoxsulam control 250 g(a.i.)/h)
Method: (§12) The post-emergence herbicidal activity test was performed in a paddy field with some of the N-benzylbenzamide-based compounds of general formula I or II with reference to the method of GB/T 17980.40-2000. […] Spray treatments were performed in the stage where 4 leaves to 5 leaves were grown for the rice seedlings which was about 1 month after the sowing. Representative compounds in the examples were used to prepare emulsifiable concentrates (10%), and spray treatments were performed with the concentrates in water at a dosage of 150 g(a.i.)/ha, and repeated 4 times for each treatment, and the area was 50 m^2. 25 g/L of penoxsulam suspension was used as a control agent and applied at a dosage of 250 g(a.i.)/h. The results were investigated by a value estimating survey method 15 days and 30 days after the treatments. The relative weed population quantities were estimated by comparing each agent treated area with an adjacent blank control area, and the results of which were investigated with the following grading standard method using the overall coverage of the weed population as an indicator.
as §2, §3, §4, §5, §6, §7, §8, §9

Broadleaf weed = assay: as above; parameters: key: level scale; higher level = more weed left vs blank control; conditions: 150 g a.i./ha (penoxsulam control 250 g(a.i.)/h)
Method: as §12, §2, §3, §4, §5, §6, §7, §8, §9

Cyperaceae = assay: as above; parameters: key: level scale; higher level = more weed left vs blank control; conditions: 150 g a.i./ha (penoxsulam control 250 g(a.i.)/h)
Method: as §12, §2, §3, §4, §5, §6, §7, §8, §9

[17] = 150 g(a.i.)/ha, 21 days after treatments

Compound	Herbicidal Activity Digitaria sanguinalis (Digitaria sanguinalis [1])	Herbicidal Activity Amaranthus retroflexus (Amaranthus retroflexus [2])	Herbicidal Activity Green bristlegrass (green bristlegrass [3])	Herbicidal Activity Piemarker (Piemarker [4])	Herbicidal Activity Barnyard grass (Barnyard grass [5])	Post-emergence weed control effect, Green bristlegrass (green bristlegrass [6])	Post-emergence weed control effect, Acalypha australis (Acalypha australis)	Post-emergence weed control effect, Solanum nigrum (Solanum nigrum)	Post-emergence weed control effect, Goose grass (goosegrass)	Post-emergence weed control effect, Convolvulus arvensis (Convolvulus arvensis)	Post-emergence weed control effect, Nutgrass flatsedge (nutgrass flatsedge)	Post-emergence weed control effect, Digitaria sanguinalis (Digitaria sanguinalis [7])	Post-emergence weed control effect, Amaranthus retroflexus (Amaranthus retroflexus [8])	Post-emergence weed control effect, Barnyard grass (Barnyard grass [9])	Post-emergence weed control effect, Chenopodium album (Chenopodium album)	Post-emergence weed control effect, Portulaca oleracea (Portulaca oleracea)	Herbicidal Activity Humulus scandens (Humulus scandens [10])	Herbicidal Activity Humulus scandens (Humulus scandens [11])	Herbicidal Activity Green bristlegrass (green bristlegrass [12])	Herbicidal Activity Piemarker (Piemarker [13])	also measured
Cc1cccc(C(=O)NCc2cc(Cl)cc(Cl)c2)c1 [Compound B08]	2 (equivalent to 0 to 2.5% of the weed in the blank control area)	1	2 (equivalent to 0 to 2.5% of the weed in the blank control area)	2 (equivalent to 0 to 2.5% of the weed in the blank control area)	2 (equivalent to 0 to 2.5% of the weed in the blank control area)	1	1	1	1	1	1	1	1	1	1	1	2 (equivalent to 0 to 2.5% of the weed in the blank control area)	1	2 (equivalent to 0 to 2.5% of the weed in the blank control area)	1	controlling effect on green bristlegrass (green bristlegrass [6]; [17]): 1; controlling effect on Acalypha australis (Acalypha australis; [17]): 1; controlling effect on Solanum nigrum (Solanum nigrum; [17]): 1; controlling effect on goosegrass (goosegrass; [17]): 1; controlling effect on Convolvulus arvensis (Convolvulus arvensis; [17]): 1; controlling effect on nutgrass flatsedge (nutgrass flatsedge; [17]): 1; controlling effect on Digitaria sanguinalis (Digitaria sanguinalis [7]; [17]): 1; controlling effect on Amaranthus retroflexus (Amaranthus retroflexus [8]; [17]): 1; controlling effect on barnyard grass (Barnyard grass [9]; [17]): 1; controlling effect on Chenopodium album (Chenopodium album; [17]): 1; controlling effect on Portulaca oleracea (Portulaca oleracea; [17]): 1; Herbicidal Activity Digitaria sanguinalis (Digitaria sanguinalis [14]): 1; Herbicidal Activity Amaranthus retroflexus (Amaranthus retroflexus [15]): 1; Herbicidal Activity Barnyard grass (Barnyard grass [16]): 1; Herbicidal activity 15 days after treatment Gramineae (Gramineae): 2 (equivalent to 0 to 2.5% of the weed in the blank control area); Herbicidal activity 30 days after treatment Gramineae (Gramineae): 2 (equivalent to 0 to 2.5% of the weed in the blank control area); Herbicidal activity 15 days after treatment Broadleaf weed (Broadleaf weed): 2 (equivalent to 0 to 2.5% of the weed in the blank control area); Herbicidal activity 30 days after treatment Broadleaf weed (Broadleaf weed): 1; Herbicidal activity 15 days after treatment Cyperaceae (Cyperaceae): 1; Herbicidal activity 30 days after treatment Cyperaceae (Cyperaceae): 1
COc1ccc(OC)c(C(=O)NCc2cc(F)cc(Cl)c2)c1 [Compound A28]	1	1	1	1	1	1	2 (equivalent to 0 to 2.5% of the weed in the blank control area)	2 (equivalent to 0 to 2.5% of the weed in the blank control area)	2 (equivalent to 0 to 2.5% of the weed in the blank control area)	1	2 (equivalent to 0 to 2.5% of the weed in the blank control area)	2 (equivalent to 0 to 2.5% of the weed in the blank control area)	1	1	1	1	2 (equivalent to 0 to 2.5% of the weed in the blank control area)	1	1	1	Herbicidal Activity Digitaria sanguinalis (Digitaria sanguinalis [14]): 1; Herbicidal Activity Amaranthus retroflexus (Amaranthus retroflexus [15]): 1; Herbicidal Activity Barnyard grass (Barnyard grass [16]): 1; Herbicidal activity 15 days after treatment Gramineae (Gramineae): 2 (equivalent to 0 to 2.5% of the weed in the blank control area); Herbicidal activity 30 days after treatment Gramineae (Gramineae): 1; Herbicidal activity 15 days after treatment Broadleaf weed (Broadleaf weed): 1; Herbicidal activity 30 days after treatment Broadleaf weed (Broadleaf weed): 1; Herbicidal activity 15 days after treatment Cyperaceae (Cyperaceae): 2 (equivalent to 0 to 2.5% of the weed in the blank control area); Herbicidal activity 30 days after treatment Cyperaceae (Cyperaceae): 1
